Results taken from patent US20100130616A1, “SALT OF ALISKIREN WITH OROTIC ACID” (NOVARTIS AG, priority 2006, published 2010).
Counter-ions that a name gives are not always drawn.

What was measured:
Assay type in all cases: physicochemical
[1] = dynamic vapour sorption (DVS-1), isothermal water absorption or loss as a function of relative humidity; settings: for Change in Mass (%) Desorption / Change in Mass (%) Sorption: 25° C., 2 hours after equilibration
Description: A clear characterisation of this property is achieved by means of isothermal measurements over predetermined time intervals and predetermined relative humidity using dynamic vapour sorption (DVS-1 from the company Surface Measurement Systems LTD, Marlow, Buckinghamshire, UK). Table 2 illustrates the mass change, i.e. the water absorption or loss as a function of relative humidity at 25° C. for a sample of the orotate salt of aliskiren and for a period of 2 hours after equilibration at each humidity level. The change in mass during the sorption and desorption cycle are shown. The measurement error of this sorption method based on thermogravimetry is about 0.1%.

[2] = 1-Week Chemical Stability Test, total impurities by HPLC-UV 230 nm
Source text: (§1) The exceptional stability of the orotate salt of aliskiren towards water may also be shown in stability tests.

[3] = stability test towards water, water content after storage; settings: open container and sealed ampoule, four weeks at 40° C. and 75% relative humidity
Source text: as §1

Compound | moisture uptake ([1]; at 80% r.h.) [%] | hygroscopicity ([1]; from moisture uptake at 80% r.h.) | Change in Mass (%) Desorption ([1]; relative humidity 0%) [%] | Change in Mass (%) Sorption ([1]; relative humidity 0%) [%] | Change in Mass (%) Desorption ([1]; relative humidity 30%) [%] | Change in Mass (%) Sorption ([1]; relative humidity 30%) [%] | Change in Mass (%) Desorption ([1]; relative humidity 50%) [%] | Change in Mass (%) Sorption ([1]; relative humidity 50%) [%] | Change in Mass (%) Desorption ([1]; relative humidity 70%) [%] | Change in Mass (%) Sorption ([1]; relative humidity 70%) [%] | Change in Mass (%) Desorption ([1]; relative humidity 90%) [%] | Change in Mass (%) Sorption ([1]; relative humidity 90%) [%] | Change in Mass (%) Desorption ([1]; relative humidity 95%) [%] | Change in Mass (%) Sorption ([1]; relative humidity 95%) [%] | Total Impurities (HPLC-UV, 230 nm), % ([2]; 1 week, 50 C. sealed) [%] | Total Impurities (HPLC-UV, 230 nm), % ([2]; 1 week, 50 C./75% RH) [%] | Total Impurities (HPLC-UV, 230 nm), % ([2]; 1 week, 80 C. sealed) [%] | Total Impurities (HPLC-UV, 230 nm), % ([2]; 1 week, 80 C./75% RH) [%] | Total Impurities (HPLC-UV, 230 nm), % ([2]; Unstressed) [%] | water content [3]
COCCCOc1cc(CC(C[C@H](N)[C@@H](O)CC(C(=O)NCC(C)(C)C(N)=O)C(C)C)C(C)C)ccc1OC (stereo partly shown) [orotate salt of aliskiren] | 0.4 | slightly-hygroscopic | 0.011 | 0.000 | 0.611 | 0.133 | 0.852 | 0.214 | 1.326 | 0.307 | 2.818 | 0.673 | 7.104 | 7.104 | 0.3 | 0.3 | 0.4 | 0.5 | 0.3 | remains constant
COCCCOc1cc(C[C@@H](C[C@H](N)[C@@H](O)C[C@H](C(=O)NCC(C)(C)C(N)=O)C(C)C)C(C)C)ccc1OC [HemiFumarate, aliskiren hemifumarate, reference compound] |  |  |  |  |  |  |  |  |  |  |  |  |  |  | 1.1 | 9.3 | 18.1 | 64.3 | 1.1 | 
